In ChEMBL document CHEMBL5291721, “A preclinical secondary pharmacology resource illuminates target-adverse drug reaction associations of marketed drugs” (Nat Commun, 2023):

What was measured:
[1] = target: 5-hydroxytryptamine receptor 2B (Homo sapiens, UniProt P41595); type: functional, cell-based
[2] = target: T1, Alpha-2B adrenergic receptor (Homo sapiens, UniProt P18089)
T1 sequence (P18089 whole entry): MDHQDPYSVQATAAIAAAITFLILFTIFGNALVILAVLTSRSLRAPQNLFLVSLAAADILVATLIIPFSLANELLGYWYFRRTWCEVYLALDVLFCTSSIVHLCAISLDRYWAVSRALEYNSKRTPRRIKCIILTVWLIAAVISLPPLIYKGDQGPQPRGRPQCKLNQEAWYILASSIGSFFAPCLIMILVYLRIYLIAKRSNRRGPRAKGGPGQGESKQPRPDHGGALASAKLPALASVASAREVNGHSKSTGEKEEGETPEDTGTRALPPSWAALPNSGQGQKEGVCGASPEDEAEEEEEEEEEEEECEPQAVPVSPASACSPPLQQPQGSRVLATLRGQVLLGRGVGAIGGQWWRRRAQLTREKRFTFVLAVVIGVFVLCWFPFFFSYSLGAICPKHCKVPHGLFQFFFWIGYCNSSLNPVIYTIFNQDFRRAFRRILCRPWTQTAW

[3] = target: T2, Gastrin/cholecystokinin type B receptor (Homo sapiens, UniProt P32239)
T2 sequence (P32239 whole entry): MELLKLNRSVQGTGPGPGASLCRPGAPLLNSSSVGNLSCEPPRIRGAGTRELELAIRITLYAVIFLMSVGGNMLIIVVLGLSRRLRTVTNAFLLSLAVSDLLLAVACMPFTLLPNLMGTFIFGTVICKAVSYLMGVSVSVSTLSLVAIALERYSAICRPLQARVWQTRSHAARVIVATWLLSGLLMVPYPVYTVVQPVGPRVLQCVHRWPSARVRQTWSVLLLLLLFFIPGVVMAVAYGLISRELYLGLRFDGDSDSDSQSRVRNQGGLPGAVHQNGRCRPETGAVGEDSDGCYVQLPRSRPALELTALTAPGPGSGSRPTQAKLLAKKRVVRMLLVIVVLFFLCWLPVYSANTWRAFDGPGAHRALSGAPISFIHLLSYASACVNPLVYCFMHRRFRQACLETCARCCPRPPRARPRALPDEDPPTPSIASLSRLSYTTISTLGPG

[4] = target: 3',5'-cyclic-AMP phosphodiesterase 4D (Homo sapiens, UniProt Q08499); type: functional
Sequence of 3',5'-cyclic-AMP phosphodiesterase 4D (Q08499 whole entry): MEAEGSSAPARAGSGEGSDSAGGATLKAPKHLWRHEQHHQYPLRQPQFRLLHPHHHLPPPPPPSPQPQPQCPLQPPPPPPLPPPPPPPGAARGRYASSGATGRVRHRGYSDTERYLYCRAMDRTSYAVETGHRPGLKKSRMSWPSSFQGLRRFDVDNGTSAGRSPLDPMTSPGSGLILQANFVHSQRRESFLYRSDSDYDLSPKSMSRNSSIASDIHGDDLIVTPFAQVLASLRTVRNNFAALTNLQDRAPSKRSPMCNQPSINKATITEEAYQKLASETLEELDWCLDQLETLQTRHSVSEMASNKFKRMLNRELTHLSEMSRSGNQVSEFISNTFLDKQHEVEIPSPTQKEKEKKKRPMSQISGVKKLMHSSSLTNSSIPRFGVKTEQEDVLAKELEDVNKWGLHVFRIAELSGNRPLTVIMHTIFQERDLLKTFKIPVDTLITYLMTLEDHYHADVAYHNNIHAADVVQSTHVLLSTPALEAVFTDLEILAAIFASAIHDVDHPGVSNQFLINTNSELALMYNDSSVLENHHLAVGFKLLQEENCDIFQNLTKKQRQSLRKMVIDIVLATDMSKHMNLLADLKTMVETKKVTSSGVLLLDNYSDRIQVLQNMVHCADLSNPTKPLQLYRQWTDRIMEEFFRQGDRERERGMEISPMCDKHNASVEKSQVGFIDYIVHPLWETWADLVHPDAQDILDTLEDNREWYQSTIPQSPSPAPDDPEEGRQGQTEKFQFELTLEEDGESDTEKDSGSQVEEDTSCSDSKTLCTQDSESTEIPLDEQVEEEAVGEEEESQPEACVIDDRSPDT

Thromboxane A2 receptor = target: T3, Thromboxane A2 receptor (Homo sapiens, UniProt P21731)
T3 sequence (P21731 whole entry): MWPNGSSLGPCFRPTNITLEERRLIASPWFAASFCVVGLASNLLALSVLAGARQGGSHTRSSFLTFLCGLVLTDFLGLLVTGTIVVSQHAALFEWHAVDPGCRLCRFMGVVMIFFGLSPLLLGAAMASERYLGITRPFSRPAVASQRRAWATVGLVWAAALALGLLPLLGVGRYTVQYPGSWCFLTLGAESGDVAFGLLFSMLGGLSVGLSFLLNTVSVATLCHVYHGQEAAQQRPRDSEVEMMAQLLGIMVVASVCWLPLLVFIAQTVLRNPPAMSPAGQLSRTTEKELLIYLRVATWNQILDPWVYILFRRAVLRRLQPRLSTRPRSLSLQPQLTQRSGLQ

[5] = target: Sodium-dependent dopamine transporter (Homo sapiens, UniProt Q01959)
Sequence of Sodium-dependent dopamine transporter (Q01959 whole entry): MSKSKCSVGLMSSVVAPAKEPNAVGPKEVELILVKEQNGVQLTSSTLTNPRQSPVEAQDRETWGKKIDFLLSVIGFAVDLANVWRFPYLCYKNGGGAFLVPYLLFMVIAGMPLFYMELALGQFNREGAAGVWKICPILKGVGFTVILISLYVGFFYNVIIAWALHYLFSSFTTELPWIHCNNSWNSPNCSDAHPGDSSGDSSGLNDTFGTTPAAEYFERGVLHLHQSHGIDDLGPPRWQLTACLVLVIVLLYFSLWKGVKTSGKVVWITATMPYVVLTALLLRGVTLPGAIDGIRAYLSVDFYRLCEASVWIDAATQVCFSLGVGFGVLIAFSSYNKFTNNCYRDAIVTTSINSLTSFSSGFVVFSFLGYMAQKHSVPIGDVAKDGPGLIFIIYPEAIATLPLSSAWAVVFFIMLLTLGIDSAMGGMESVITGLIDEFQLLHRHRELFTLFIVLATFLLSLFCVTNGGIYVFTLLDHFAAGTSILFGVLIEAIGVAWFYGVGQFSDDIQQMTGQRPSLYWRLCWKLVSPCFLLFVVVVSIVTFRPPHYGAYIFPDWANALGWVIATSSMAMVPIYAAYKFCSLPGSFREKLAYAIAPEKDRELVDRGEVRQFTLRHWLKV

Adenosine receptor A2a = Adenosine receptor A2a (Homo sapiens, UniProt P29274)
Sequence of Adenosine receptor A2a (P29274 whole entry): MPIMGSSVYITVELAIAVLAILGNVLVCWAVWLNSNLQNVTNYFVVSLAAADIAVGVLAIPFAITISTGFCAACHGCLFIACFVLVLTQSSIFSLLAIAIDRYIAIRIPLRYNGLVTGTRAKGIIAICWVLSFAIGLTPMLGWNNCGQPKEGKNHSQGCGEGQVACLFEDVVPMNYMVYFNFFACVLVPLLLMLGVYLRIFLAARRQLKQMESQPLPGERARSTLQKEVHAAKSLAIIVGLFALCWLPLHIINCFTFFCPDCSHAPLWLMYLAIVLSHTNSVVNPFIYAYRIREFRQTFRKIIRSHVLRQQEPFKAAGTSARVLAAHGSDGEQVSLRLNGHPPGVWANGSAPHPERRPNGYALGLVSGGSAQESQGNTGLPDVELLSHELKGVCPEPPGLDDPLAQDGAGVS

Glucocorticoid receptor = target: T4, Glucocorticoid receptor (Homo sapiens, UniProt P04150)
T4 sequence (P04150 whole entry): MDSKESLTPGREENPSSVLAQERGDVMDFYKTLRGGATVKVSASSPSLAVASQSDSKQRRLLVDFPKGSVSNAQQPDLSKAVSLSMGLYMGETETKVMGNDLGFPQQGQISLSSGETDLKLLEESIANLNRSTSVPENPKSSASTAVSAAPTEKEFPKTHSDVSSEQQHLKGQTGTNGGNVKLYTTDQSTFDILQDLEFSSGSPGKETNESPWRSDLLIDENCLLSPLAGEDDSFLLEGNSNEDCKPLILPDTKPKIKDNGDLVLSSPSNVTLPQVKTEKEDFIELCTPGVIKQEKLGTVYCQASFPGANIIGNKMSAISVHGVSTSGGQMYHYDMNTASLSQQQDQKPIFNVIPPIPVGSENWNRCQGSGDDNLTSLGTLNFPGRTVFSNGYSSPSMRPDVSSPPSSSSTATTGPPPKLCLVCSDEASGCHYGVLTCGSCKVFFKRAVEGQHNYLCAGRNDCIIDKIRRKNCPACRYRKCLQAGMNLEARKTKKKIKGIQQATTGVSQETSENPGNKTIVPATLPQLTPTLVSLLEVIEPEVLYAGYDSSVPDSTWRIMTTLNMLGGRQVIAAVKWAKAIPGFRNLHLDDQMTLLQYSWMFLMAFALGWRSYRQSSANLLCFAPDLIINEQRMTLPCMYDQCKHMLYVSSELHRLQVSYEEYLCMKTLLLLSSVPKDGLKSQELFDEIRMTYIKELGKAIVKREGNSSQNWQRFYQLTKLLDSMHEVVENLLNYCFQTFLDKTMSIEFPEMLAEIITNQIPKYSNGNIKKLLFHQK

[6] = target: Neuronal acetylcholine receptor subunit alpha-4 (Homo sapiens, UniProt P43681)
Sequence of Neuronal acetylcholine receptor subunit alpha-4 (P43681 whole entry): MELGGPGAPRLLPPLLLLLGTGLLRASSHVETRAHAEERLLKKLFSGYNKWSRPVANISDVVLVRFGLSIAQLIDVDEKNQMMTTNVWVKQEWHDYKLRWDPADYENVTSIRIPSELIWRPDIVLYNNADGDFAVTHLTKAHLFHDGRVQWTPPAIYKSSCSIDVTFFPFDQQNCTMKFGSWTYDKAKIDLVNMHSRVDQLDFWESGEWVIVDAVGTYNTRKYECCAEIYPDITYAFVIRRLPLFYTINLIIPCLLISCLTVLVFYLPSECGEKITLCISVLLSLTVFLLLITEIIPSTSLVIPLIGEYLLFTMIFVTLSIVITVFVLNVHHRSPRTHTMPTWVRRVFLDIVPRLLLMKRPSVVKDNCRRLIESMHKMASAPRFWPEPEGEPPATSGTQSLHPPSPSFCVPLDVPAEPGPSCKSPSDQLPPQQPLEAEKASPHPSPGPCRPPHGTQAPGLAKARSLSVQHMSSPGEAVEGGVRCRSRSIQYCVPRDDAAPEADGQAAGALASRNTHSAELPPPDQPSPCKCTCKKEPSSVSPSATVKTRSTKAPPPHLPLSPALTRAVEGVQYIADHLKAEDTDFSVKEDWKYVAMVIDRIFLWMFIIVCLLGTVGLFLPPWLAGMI

Endothelin-1 receptor = target: T5, Endothelin-1 receptor (Homo sapiens, UniProt P25101)
T5 sequence (P25101 whole entry): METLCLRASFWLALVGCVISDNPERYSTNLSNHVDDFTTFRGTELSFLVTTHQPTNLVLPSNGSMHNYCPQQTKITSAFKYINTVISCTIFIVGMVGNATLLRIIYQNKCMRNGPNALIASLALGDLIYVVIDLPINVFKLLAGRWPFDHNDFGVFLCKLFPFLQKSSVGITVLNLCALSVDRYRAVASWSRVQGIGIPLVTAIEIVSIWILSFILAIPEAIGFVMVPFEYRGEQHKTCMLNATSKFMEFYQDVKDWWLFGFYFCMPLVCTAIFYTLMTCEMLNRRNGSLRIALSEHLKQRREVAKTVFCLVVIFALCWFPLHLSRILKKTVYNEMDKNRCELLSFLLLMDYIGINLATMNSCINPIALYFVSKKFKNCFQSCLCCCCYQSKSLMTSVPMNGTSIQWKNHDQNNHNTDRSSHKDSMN
Further: assay procedure not described here.

Sequence of 5-hydroxytryptamine receptor 2B (P41595 whole entry): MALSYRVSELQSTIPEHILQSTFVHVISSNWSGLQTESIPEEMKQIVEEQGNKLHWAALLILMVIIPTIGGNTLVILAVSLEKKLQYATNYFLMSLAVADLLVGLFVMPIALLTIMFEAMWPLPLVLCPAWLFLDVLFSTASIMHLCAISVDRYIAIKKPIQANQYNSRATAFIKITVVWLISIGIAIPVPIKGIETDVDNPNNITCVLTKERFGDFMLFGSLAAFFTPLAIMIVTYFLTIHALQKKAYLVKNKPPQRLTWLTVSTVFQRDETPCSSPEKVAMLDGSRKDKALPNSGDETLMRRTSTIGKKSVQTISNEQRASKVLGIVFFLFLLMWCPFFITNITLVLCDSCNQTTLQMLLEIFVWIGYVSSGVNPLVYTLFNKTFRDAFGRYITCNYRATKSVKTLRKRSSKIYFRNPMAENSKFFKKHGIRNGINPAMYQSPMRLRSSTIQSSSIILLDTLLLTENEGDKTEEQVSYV

| SMILES | AC50 [1] [µM] | AC50 [2] [µM] | AC50 [3] [µM] | AC50 [4] [µM] | AC50 (Thromboxane A2 receptor) [µM] | AC50 [5] [µM] | AC50 (Adenosine receptor A2a) [µM] | AC50 (Glucocorticoid receptor) [µM] | AC50 [6] [µM] | AC50 (Endothelin-1 receptor) [µM] |
| --- | --- | --- | --- | --- | --- | --- | --- | --- | --- | --- |
| CCCCCCCCCCCC[N+](C)(C)CCOc1ccccc1 [DOMIPHEN] | 11 | 3.8 | > 10 | 12 | > 30 | 2.5 | > 30 | 18 | > 30 | > 30 |
| CN[C@@H](C)[C@H](O)c1ccccc1 [EPHEDRINE] | > 10 | > 10 | > 30 | > 30 | > 30 | > 10 | > 30 | > 30 | > 10 | > 30 |
| CCCCCN(C)CCC(O)(P(=O)(O)O)P(=O)(O)O [IBANDRONIC ACID] | > 30 | > 30 | > 30 | > 30 | > 30 | > 30 | > 30 | > 30 | > 30 | > 30 |
| C1=Cc2cccc(OCC3CNCCO3)c2C1 (configuration not stated) [INDELOXAZINE] | 5.3 | > 30 | > 30 | > 30 | > 30 | 12 | > 30 | > 30 | > 30 | > 30 |
| COc1ccc(C(=O)NCc2ccc(OCCN(C)C)cc2)cc1OC [ITOPRIDE] | > 30 | > 30 | > 30 | > 30 | > 30 | > 30 | > 30 | > 30 | > 30 | > 30 |
| O=C(O)Cc1cn(-c2ccccc2)nc1-c1ccc(Cl)cc1 [LONAZOLAC] | > 30 | > 30 | > 10 | > 30 | > 30 | > 30 | > 30 | > 30 | > 30 | > 30 |
| C[C@H]1C[C@@H]2[C@H]([C@@H](O)C[C@@]3(C)[C@H]2CC[C@]3(O)C(=O)COC(=O)CCC(=O)O)[C@@]2(C)C=CC(=O)C=C12 [METHYLPREDNISOLONE HEMISUCCINATE] | > 30 | > 30 | > 30 | > 30 |  | > 30 | > 30 | 0.67 | > 30 | > 30 |
| CCCCCCC(C)(C)c1cc(O)c2c(c1)OC(C)(C)C1CCC(=O)CC21 (configuration not stated) [NABILONE] | > 30 | > 30 | > 30 | > 30 |  | 16 | > 30 | > 30 | > 30 | > 30 |
| Cc1c(C(=O)Nc2ccc(N3C[C@@H](C)O[C@@H](C)C3)nc2)cccc1-c1ccc(OC(F)(F)F)cc1 [SONIDEGIB] |  | > 10 | > 30 | > 30 | > 30 | > 10 | > 30 | > 30 | > 10 | > 30 |
